Results taken from a melting point compilation (Tetko et al.; mined from patent text by program, amines drawn as free bases though some values may be those of a salt).

| Compound | melting point |
| --- | --- |
| COc1cc(C(=O)O)ccc1OCc1nc(-c2ccccc2)oc1C | 219 to 220 °C |
| CN1CCC(N(C)S(=O)(=O)c2ccc(Nc3nc(Cl)cc(Nc4ccc(F)cc4)n3)cc2)CC1 | 140 to 142 °C |
| COc1ccc(NC(C)=O)c(O)c1C(C)=O | 160 to 162 °C |
| C#CC1CCC(c2ccc(C3CCC(CCC)CC3)cc2)CC1 (configuration not stated) | 143 °C |
| O=C(O)c1cn(C2CC2)c2cc(N3CCNC(c4ccoc4)C3)c(F)cc2c1=O (configuration not stated) | 202 to 204 °C |
| COc1ccc(/C=C(\CSC(C)=O)C(=O)O)cc1 | 155 °C |
| Cc1ccc(CCCc2c(C(C)C)nc(C(C)C)c(CO)c2-c2ccc(F)cc2)cc1 | 79 to 80 °C |
| O=C(CCCN1CCC(c2ccc(Cl)cc2)CC1)c1ccc2c(c1)CCN(Cc1ccccc1)CC2 | 99 to 100 °C |
| N#Cc1cc(S(=O)(=O)c2ccc(Cl)cc2)[nH]c1-c1ccc(Cl)cc1 | 159 to 160 °C |
| Cc1c(C(=O)CN2CCCCC2)c(C)n(C)c1C(=O)c1ccc(Cl)cc1Cl | 177 to 179 °C |
| c1ccc(C(c2ccccc2)N2CCN(CCCn3cnc4ccccc43)CC2)cc1 | 132 °C |
| Cc1c(CC(=O)OC(OC(=O)Cc2cc(C(C)(C)C)c(O)c(C)c2C)(OC(=O)Cc2cc(C(C)(C)C)c(O)c(C)c2C)C(C)(C)C)cc(C(C)(C)C)c(O)c1C | 159 °C |
| CCCCCC1(c2ccccc2)CC=CC(=O)O1 (configuration not stated) | 123 to 124 °C |
| Cc1nc(-n2cnn(Cc3ccc(F)cc3)c2=O)sc1C(=O)NCc1cnn(C)c1 | 205 to 206 °C |
| O=C(Nc1ccc(CN2C(=O)[C@H]3CCC[C@H]3N(C(=O)CN3C(=O)c4ccccc4C3=O)c3ccccc32)cc1)c1ccccc1F (relative stereo) | 238 to 240 °C |
| O=[N+]([O-])C=C(NCc1ccc(Cl)nc1)NCc1ccc(Cl)nc1 | 238 to 240 °C |
| CCNC(=O)n1nc(Oc2ncc(C(F)(F)F)cc2Cl)c(C)c1C | 124 to 125 °C |
| COC(=O)C(C)Nc1c(C)csc1C (configuration not stated) | 33 to 34 °C |
| COC(=O)c1cc(Cl)c(I)cc1OC | 72 to 73 °C |
| O=C1NC(=O)c2c1c(-c1cc([N+](=O)[O-])cc([N+](=O)[O-])c1)cc1[nH]c3ccc(O)cc3c21 | > 330 °C |
| O=C(NC(=O)c1ccc2ncccc2c1)NC1CCN(Cc2ccc3ccccc3c2)CC1 | 211 to 213 °C |
| Cc1cc(=O)c(C(=O)OC2CCCCC2)nn1-c1ccc(Cl)cc1 | 160 to 162 °C |
| CCCCNC(=O)Nc1ccc(N(CC)CC)cc1C(=O)NCC1CCN(C(c2ccccc2)c2ccccc2)CC1 | 158 to 160 °C |
| Cc1ccc(Cn2c(=O)c3c(Cl)cc(Cl)cc3n(Cc3ccccc3)c2=O)cc1C | 126 to 132 °C |
| CC1(C)CCc2cc(OCc3ccccc3)c(O)c([N+](=O)[O-])c2C1=O | 146 to 149 °C |

| Compound | melting point |
| --- | --- |
| CCOC(=O)c1c(C)cc2c(c1C)c(=O)n(-c1ccccc1Cl)c(=O)n2CCCN(C)Cc1ccccc1 | 145 to 146 °C |
| CNC(=O)N1C(=O)C(=O)c2cc(F)ccc21 | 230 to 232 °C |
| COc1cccc(CNC(=O)c2ccc(COC3CCCCO3)cc2)c1 (configuration not stated) | 66 to 68.5 °C |
| CC(O)=C(C#N)C(=O)Nc1cc(Cl)ccc1Cl | 143 to 144 °C |
| O=C(CC(CCCc1ccccc1)C(=O)O)c1ccc(Br)cc1 (configuration not stated) | 147 °C |
| O=CC=Cc1ccc(O)c(O)c1 | 200 to 202 °C |
| COC(=O)Cc1c(Cl)nc(C)nc1Cl | 67 to 68 °C |
| CC1(C)CC(Nc2nc(NC3CC(C)(C)N(O)C(C)(C)C3)nc(N(C3CC(C)(C)N(O)C(C)(C)C3)C3CC(C)(C)N(O)C(C)(C)C3)n2)CC(C)(C)N1O | 243 to 246 °C |
| CNC(=O)C(Sc1nc2cc(Cl)ccc2s1)c1ccccc1 (configuration not stated) | 170 to 171 °C |
| COCCNC(=O)c1ccnc(-c2cccc3cc(Cc4cccc(C(F)(F)F)c4)sc23)c1 | 108 to 109 °C |
| O=c1oc(-c2c(F)cccc2Cl)nn1-c1ccccc1Cl | 92 to 95 °C |
| CC1Cc2cc3c(cc2C(c2ccc([N+](=O)[O-])cc2)=NN1C(=O)C(C)(C)C)OCO3 (configuration not stated) | 164 to 166 °C |
| NC(=S)N1CCCCc2cccnc21 | 121 °C |
| Clc1cc(CBr)ccc1-c1ccccc1C1=NNN(C(c2ccccc2)(c2ccccc2)c2ccccc2)N1 | 15 to 60 °C |
| O=C(O)C1=COCC(C(=O)O)=C1 | 87 to 90 °C |
| O=C(Cc1ccc(CN2CCCC2)cc1)NCc1ccc(Br)cc1 | 107 to 109 °C |
| O=C1Cc2cc(NC(=O)C(=O)N3CCC(Cc4ccccc4)CC3)ccc2N1 | 115 to 118 °C |
| Cc1noc(C)c1CON1C(=O)c2ccccc2C1=O | 144 to 146 °C |
| CN1C(=O)C(C#N)(c2ccc(OCC(O)CNC(C)(C)C)cc2)Sc2ccccc21 (configuration not stated) | 160 °C |
| Cn1c(=O)ccc2cnc(S(C)(=O)=O)nc21 | 194 to 196 °C |
| O=C(O)CCCCCOc1cccc2occc12 | 86 to 87 °C |
| CCOC(=O)c1cc2nc(C)oc2nc1C(=O)OCC | 101 to 103 °C |
| CCOC(=O)C1=CC(NC(=NC(=O)OC(C)(C)C)NC(=O)OC(C)(C)C)C(NC(C)=O)C(C(O)C2COC(C)(C)O2)O1 (configuration not stated) | 118 to 120 °C |
| Cc1cc2c(cc1-c1c[nH]c(C=CC(=O)O)c1)C(C)(C)CCC2(C)C | 245 to 246 °C |
| CCOC(=O)c1c(NCc2ccccc2)nc2ccc(Br)cc2c1Cl | 163 to 165 °C |

| Compound | melting point |
| --- | --- |
| CC1=C(C(=O)OC(C)(C)C)C(c2ccc(C)cc2C)C(C(=O)OC(C)(C)C)=C(C)N1 | 197 to 198 °C |
| CS(=O)c1ccc(C2=C(c3ccccc3)C(=O)OC2)cc1 (configuration not stated) | 149 to 150 °C |
| Cc1ccc(C(=O)c2c(O)c3cc(C)ccc3[nH]c2=S)cc1 | 280 °C |
| ClCc1c2ccccc2c(Cc2ccccc2)c2ccccc12 | 146 to 147 °C |
| Fc1ccc2c(c1)nc(C(F)(F)C(F)(F)F)n2C1CCNCC1 | 177 to 178 °C |
| CN1CC(CCN2CCOCC2)Oc2ncccc2C1=S (configuration not stated) | 152 to 153 °C |
| CCCCCCCN(CCCCCS(=O)(=O)c1nc(-c2ccccc2)c(-c2ccccc2)[nH]1)C(=O)Nc1ccc(F)cc1F | 66 to 68 °C |
| O=C(O)CO[C@@H]1CCCC[C@H]1NC(=O)Nc1ccccc1 (relative stereo) | 166 to 168 °C |
| CCOC(=O)c1ncc2[nH]c3cccc(CN4CCOCC4)c3c2c1COC | 195 to 196 °C |
| CCOC(=O)c1cc2c(s1)CCC2=O | 54 to 55 °C |
| Fc1cccc(Nc2nc(OCC3CCCCC3)c3[nH]cnc3n2)c1 | 224 to 227 °C |
| N#Cc1c(-c2ccc(Cl)cc2)[nH]c(C(F)(F)F)c1Cl | 242 to 243 °C |
| CNc1ccc(C(=O)Nc2ccccc2[N+](=O)[O-])cc1 | 187 °C |
| Cc1ccc(N2C(=O)C(O)=C(C(=O)c3ccc(OC(F)(F)F)cc3)C2c2ccc(Cn3cncn3)cc2)nn1 (configuration not stated) | 224 °C |
| CC12CCC3c4ccc(Cl)cc4CCC3C1CCC2NCc1cccc(C(F)(F)F)c1 (configuration not stated) | 97 to 101 °C |
| C[C@@H]1OCCN(c2cc(N3CCOCC3)nc(-n3c(CO)nc4ccccc43)n2)[C@@H]1C (relative stereo) | 125 to 128 °C |
| COC(=O)c1cc(S(C)(=O)=O)c(Br)cc1C | 150 °C |
| O=C(c1ccc(-n2ccnc2-c2ccccc2)cc1)C1CC1 | 155 to 157 °C |
| CCCc1cc2c(cc1O)C(C)(C)CCC2(C)C | 96 to 97 °C |
| Cc1cc(Cl)cc2c(-c3ccc(Cl)cc3)onc12 | 151 to 152 °C |
| CC(=O)Nc1ccc(OCC(O)CNC(C)(C)C)c(C2=NNC(=O)CC2)c1 (configuration not stated) | 102 to 109 °C |
| CCOC(=O)C=Cc1ccc(Cl)cc1N(CC(=O)c1ccc(Cl)cc1)S(=O)(=O)c1ccc(C)cc1 | 162 to 165 °C |
| COC(=O)C(C(=O)OC)c1ccc2c(c1)C(=O)c1cc3ccccc3cc1C2=O | 211 to 215 °C |
| COC(CC(=O)O)C(O)=Nc1cc(Cl)cc(Cl)c1 (configuration not stated) | 125 to 126 °C |
| Nc1ccccc1-c1nc2cccnc2o1 | 142 to 144 °C |

| Compound | melting point |
| --- | --- |
| CCOc1cc(F)ccc1C(=O)c1ccc(OC)c(Cl)c1Cl | 107 to 109 °C |
| C=CCN1Cc2nc3c(cnn3CCC#CC)c(N)c2C1=O | 192 to 194 °C |
| O=C(O)C1CN(Cc2ccccc2)CCN1Cc1ccccc1 (configuration not stated) | 184 to 185 °C |
| COc1ccc(C=C2NC(=O)NC2=O)cc1OC1CCCC1 | 220 to 222 °C |
| CS(=O)(=O)c1ccc(-c2cnn(-c3ccc(F)c(F)c3)c(=O)c2Oc2ccc(Br)cc2)cc1 | 196 to 199 °C |
| COC(=O)COc1ccc(C(=O)C(C)C)cc1 | 45 to 46 °C |
| O=C1C=CC(O)(c2cc3ccccc3s2)C=C1 | 185 to 188 °C |
| COCOc1c(C)cc(-c2ccc(C(=O)OC)cc2)cc1C | 100 to 101 °C |
| Cc1nc(C)c(C(=O)O)c(-c2ccccc2F)c1C(=O)O | > 285 °C |
| COc1ccc(C(=O)c2cccc(C(F)(F)F)c2)cc1 | 62.5 to 63.5 °C |
| COc1nc(NC(=O)NS(=O)(=O)c2csc3ccccc23)nc(OC)n1 | 152 °C |
| COc1cc(-n2cnc(CO)c2)cc(C(F)(F)F)c1 | 133 to 134 °C |
| NC(=O)COc1cccc(CCNS(=O)(=O)c2cccc(C(F)(F)F)c2)c1 | 118 °C |
| COc1ccc(Cl)cc1C(=O)NCCc1ccc(-c2ccc(OC(C)(C)CO)cc2)cc1 | 115 °C |
| C#CCN1CCc2cc(OC)c(O)c3c2C1Cc1cc(OC)c(OC)cc1-3 (configuration not stated) | 135 to 150 °C |
| CC1(CF)C(=O)N(c2ccc(C#N)c(C(F)(F)F)c2)C(=O)N1CC#N (configuration not stated) | 175 °C |
| Nc1ncc(S(=O)c2cccnc2)s1 (configuration not stated) | 178 to 179 °C |
| CCCO[C@@H](Cc1ccc(OCCc2nc(-c3ccc(-c4ccccc4)cc3)oc2C)c2ccccc12)C(=O)O | 151 to 154 °C |
| COc1cccc2c1CC(C(=O)NCCOc1ccc(C(=O)OC(C)(C)C)cc1)N2S(=O)(=O)c1ccc(-c2ccc(F)cc2Cl)cc1 (configuration not stated) | 79 to 85 °C |
| CCc1ccc(CC2N=C(c3ccc(F)cc3)c3cc(Cl)ccc3NC2=O)cc1CC (configuration not stated) | 88 to 90 °C |
| Cc1ccc(S(=O)(=O)OCC2Cc3cccc(-c4ccc(C(F)(F)F)cc4)c3O2)cc1 (configuration not stated) | 116 to 118 °C |
| Cc1nc(C(F)(F)F)ccc1/C=C/C(=O)Nc1ccc2ncsc2c1 | 196 °C |
